System: TEAD-dependent transcription (12XGTIIC TEAD response element luciferase reporter) in MSTO-211H cells
Assay: TEAD-dependent transcription cell-based luciferase reporter assay in MSTO-211H+12XGTIIC cells
Conditions: Homo sapiens; MSTO-211H+12XGTIIC reporter cells, 24 hours compound incubation, luminescence normalized to cell viability signal, geometric mean; read-out: MSTO-211H GMean IC50 (uM) Cell Assay Reporter Cell Variant: TEAD
From the text: Determine Inhibitor Activity Against TEAD-Dependent Transcription in a Cell-Based Reporter Assay
The human mesothelioma cell line MSTO-211H was stably transfected with a pGL4.21 plasmid containing a synthetic promoter with 12 copies of the GTIIC TEAD response element that drives the expression of a luciferase reporter gene^1 using Lipofectamine transfection reagent (Thermo Fisher). Transfected cells were selected using puromycin and single cell clones expressing this construct (referred to as MSTO-211H+12XGTIIC) were generated by limiting dilution. MSTO-211H cells was characterized by genetic alterations in key components of the Hippo pathway^2, resulting in up-regulation of YAP/TEAD-mediated transcription. […] To evaluate TEAD inhibitors, the MSTO-211H+12XGTIIC cell line was seeded in a 96-well plate in 50 μL of culture media at 1×10^4 cells per well and incubated at 37° C. overnight. Serial dilutions of compounds (in total volume of 50 μL of culture media) were added to the cells and incubated at 37° C. for 24 hours. Each plate included cells treated with DMSO as high controls and cells treated with 20 μM of the reference compound K-975 (a known TEAD inhibitor^3) as low controls. Cell viability was assayed by the addition of 25 μL of CellTiter-Fluor reagent (Promega) followed by a 30-minute incubation at 37° C. and quantification of the fluorescence signal (Ex400/Em505). Subsequently, luciferase expression was assayed by the addition of 25 μL of ONE-Glo reagent (Promega) followed by a 10-minute incubation at room temperature and quantification of the luminescence signal. The luminescence signal was normalized to the fluorescence signal to correct for any loss in cell viability over the 24-hour compound incubation period. The percentage of inhibition of normalized luminescence signal, indicative of compound-mediated inhibition of TEAD-dependent transcription, at individual compound concentrations relative to high and low controls was calculated. The data were analyzed by using nonlinear regression to generate IC50 values for individual compounds.

| Structure (SMILES) | IC50 |
| --- | --- |
| O=C(NC1CC1)N1CCC(C(=O)N2CCc3c(cccc3Nc3ccc(C(F)(F)F)c(F)c3)C2)C1 (centres unmarked) [Compound O-0098, N-cyclopropyl-3-(5-((3-fluoro-4-(trifluoromethyl)phenyl)amino)-1,2,3,4-tetrahydroisoquinoline-2-carbonyl)pyrrolidine-1-carboxamide] | 0.001 to 10 µM |
| CS(=O)(=O)c1nc(C(=O)N2CCc3c(cccc3Nc3ccc(C(F)(F)F)cc3)C2)c[nH]1 [Compound O-0045, (2-(methylsulfonyl)-1H-imidazol-4-yl)(5-((4-(trifluoromethyl)phenyl)amino)-3,4-dihydroisoquinolin-2(1H)-yl)methanone] | 0.001 to 10 µM |
| O=C(Cc1cnco1)N1CCc2c(cccc2Nc2ccc(C(F)(F)F)cc2)C1 [Compound O-0004, 2-(oxazol-5-yl)-1-(5-((4-(trifluoromethyl)phenyl)amino)-3,4-dihydroisoquinolin-2(1H)-yl)ethan-1-one] | 0.001 to 10 µM |
| O=C(CCS(=O)(=O)C(F)(F)F)N1CCc2c(cccc2Nc2ccc(C(F)(F)F)nc2)C1 [Compound O-0020, 1-(5-((6-(trifluoromethyl)pyridin-3-yl)amino)-3,4-dihydroisoquinolin-2(1H)-yl)-3-((trifluoromethyl)sulfonyl)propan-1-one] | 0.001 to 10 µM |
| CS(=O)(=O)CCC(=O)N1CCc2c(cccc2Nc2ccc(C(F)(F)F)cc2)C1 [Compound O-0001, 3-(methylsulfonyl)-1-(5-((4-(trifluoromethyl)phenyl)amino)-3,4-dihydroisoquinolin-2(1H)-yl)propan-1-one] | 0.001 to 10 µM |
| O=C(NCCC(=O)N1CCc2c(cccc2Nc2ccc(C(F)(F)F)cc2F)C1)NC1CC1 [Compound O-0193, 1-cyclopropyl-3-(3-(5-((2-fluoro-4-(trifluoromethyl)phenyl)amino)-3,4-dihydroisoquinolin-2(1H)-yl)-3-oxopropyl)urea] | 0.001 to 10 µM |
| CN1CCN(CCCS(=O)(=O)N2CCc3c(cccc3Nc3ccc(C(F)(F)F)cc3)C2)CC1 [Compound O-0198, 2-((3-(4-methylpiperazin-1-yl)propyl)sulfonyl)-N-(4-(trifluoromethyl)phenyl)-1,2,3,4-tetrahydroisoquinolin-5-amine] | 0.001 to 10 µM |
| O=C(NCCC(=O)N1CCc2c(cccc2Nc2ccc(C(F)(F)F)cn2)C1)NC1CC1 [Compound O-0187, 1-cyclopropyl-3-(3-oxo-3-(5-((5-(trifluoromethyl)pyridin-2-yl)amino)-3,4-dihydroisoquinolin-2(1H)-yl)propyl)urea] | 0.001 to 10 µM |
| Nc1cccc(C(=O)N2CCc3c(cccc3Nc3ccc(C(F)(F)F)cc3)C2)n1 [Compound O-0029, (6-aminopyridin-2-yl)(5-((4-(trifluoromethyl)phenyl)amino)-3,4-dihydroisoquinolin-2(1H)-yl)methanone] | 10 to 100 µM |
| CS(=O)(=O)c1cccc(C(=O)N2CCc3c(cccc3Nc3ccc(C(F)(F)F)cc3)C2)c1 [Compound O-0202, (3-(methylsulfonyl)phenyl)(5-((4-(trifluoromethyl)phenyl)amino)-3,4-dihydroisoquinolin-2(1H)-yl)methanone] | 0.001 to 10 µM |
| N=C(N)N1CCC(C(=O)N2CCc3c(cccc3Nc3ccc(C(F)(F)F)cn3)C2)C1 (centres unmarked) [Compound O-0203, 3-(5-((5-(trifluoromethyl)pyridin-2-yl)amino)-1,2,3,4-tetrahydroisoquinoline-2-carbonyl)pyrrolidine-1-carboximidamide] | 0.001 to 10 µM |
| Cc1nc(CC(=O)N2CCc3c(cccc3Nc3ccc(C(F)(F)F)cc3)C2)co1 [Compound O-0005, 2-(2-methyloxazol-4-yl)-1-(5-((4-(trifluoromethyl)phenyl)amino)-3,4-dihydroisoquinolin-2(1H)-yl)ethan-1-one] | 0.001 to 10 µM |
| Nc1cc(C(=O)N2CCc3c(cccc3Nc3ccc(C(F)(F)F)cc3)C2)ccn1 [Compound O-0032, (2-aminopyridin-4-yl)(5-((4-(trifluoromethyl)phenyl)amino)-3,4-dihydroisoquinolin-2(1H)-yl)methanone] | 0.001 to 10 µM |
| Cn1cncc1CC(=O)N1CCc2c(cccc2Nc2ccc(C(F)(F)F)cc2)C1 [Compound O-0002, 2-(1-methyl-1H-imidazol-5-yl)-1-(5-((4-(trifluoromethyl)phenyl)amino)-3,4-dihydroisoquinolin-2(1H)-yl)ethan-1-one] | 0.001 to 10 µM |
| O=C(CCc1cnc[nH]1)N1CCc2c(cccc2Nc2ccc(C(F)(F)F)cc2)C1 [Compound O-0054, 3-(1H-imidazol-5-yl)-1-(5-((4-(trifluoromethyl)phenyl)amino)-3,4-dihydroisoquinolin-2(1H)-yl)propan-1-one] | 0.001 to 10 µM |
| Nc1cccc(C(=O)N2CCc3c(cccc3Nc3ccc(C(F)(F)F)cc3)C2)c1 [Compound O-0028, (3-aminophenyl)(5-((4-(trifluoromethyl)phenyl)amino)-3,4-dihydroisoquinolin-2(1H)-yl)methanone] | 10 to 100 µM |
| O=C(C1CS(=O)(=O)C1)N1CCc2cc(Nc3ccc(C(F)(F)F)cc3)ccc2C1 [Compound O-0207, (1,1-dioxidothietan-3-yl)(6-((4-(trifluoromethyl)phenyl)amino)-3,4-dihydroisoquinolin-2(1H)-yl)methanone] | 0.001 to 10 µM |
| CN(c1ccc(C(F)(F)F)cc1)c1ncnc2c1CCN(C(=O)CCS(=O)(=O)C(F)(F)F)C2 [Compound O-0025, 1-(4-(methyl(4-(trifluoromethyl)phenyl)amino)-5,8-dihydropyrido[3,4-d]pyrimidin-7(6H)-yl)-3-((trifluoromethyl)sulfonyl)propan-1-one] | 0.001 to 10 µM |
| CN(c1ccc(C(F)(F)F)cc1)c1cccc2c1CCN(C(=O)c1cccc(N)c1)C2 [Compound O-0013, (3-aminophenyl)(5-(methyl(4-(trifluoromethyl)phenyl)amino)-3,4-dihydroisoquinolin-2(1H)-yl)methanone] | 0.001 to 10 µM |
| NC(=O)NCCC(=O)N1CCc2c(cccc2Nc2ccc(C(F)(F)F)nc2)C1 [Compound O-0189, 1-(3-oxo-3-(5-((6-(trifluoromethyl)pyridin-3-yl)amino)-3,4-dihydroisoquinolin-2(1H)-yl)propyl)urea] | 0.001 to 10 µM |
| C=CC(=O)Nc1cc(C(=O)N2CCc3c(cccc3Nc3ccc(C(F)(F)F)cc3)C2)ccn1 [Compound O-0038, N-(4-(5-((4-(trifluoromethyl)phenyl)amino)-1,2,3,4-tetrahydroisoquinoline-2-carbonyl)pyridin-2-yl)acrylamide] | 0.001 to 10 µM |
| O=C(c1cccc2[nH]ccc12)N1CCc2c(cccc2Nc2ccc(C(F)(F)F)cc2)C1 [Compound O-0027, (1H-indol-4-yl)(5-((4-(trifluoromethyl)phenyl)amino)-3,4-dihydroisoquinolin-2(1H)-yl)methanone] | 0.001 to 10 µM |
| O=C(Cc1cn[nH]c1)N1CCc2c(cccc2Nc2ccc(C(F)(F)F)cc2)C1 [Compound O-0026, 2-(1H-pyrazol-4-yl)-1-(5-((4-(trifluoromethyl)phenyl)amino)-3,4-dihydroisoquinolin-2(1H)-yl)ethan-1-one] | 0.001 to 10 µM |
| C=CC(=O)Nc1nccc(C(=O)N2CCc3c(cccc3Nc3ccc(C(F)(F)F)cc3)C2)n1 [Compound O-0039, N-(4-(5-((4-(trifluoromethyl)phenyl)amino)-1,2,3,4-tetrahydroisoquinoline-2-carbonyl)pyrimidin-2-yl)acrylamide] | 0.001 to 10 µM |
| CN(c1ccc(C(F)(F)F)cc1)c1cccc2c1CCN(C(=O)c1cccc(N)n1)C2 [Compound O-0014, (6-aminopyridin-2-yl)(5-(methyl(4-(trifluoromethyl)phenyl)amino)-3,4-dihydroisoquinolin-2(1H)-yl)methanone] | 0.001 to 10 µM |
| O=C(C1CCS(=O)(=O)CC1)N1CCc2cc(Nc3ccc(C(F)(F)F)cc3)ccc2C1 [Compound O-0208, (1,1-dioxidotetrahydro-2H-thiopyran-4-yl)(6-((4-(trifluoromethyl)phenyl)amino)-3,4-dihydroisoquinolin-2(1H)-yl)methanone] | 0.001 to 10 µM |
| O=C(NCCC(=O)N1CCc2c(cccc2Nc2ccc(C(F)(F)F)c(F)c2)C1)NC1CC1 [Compound O-0188, 1-cyclopropyl-3-(3-(5-((3-fluoro-4-(trifluoromethyl)phenyl)amino)-3,4-dihydroisoquinolin-2(1H)-yl)-3-oxopropyl)urea] | 0.001 to 10 µM |
| CN(c1ccc(C(F)(F)F)cc1)c1cccc2c1CCN(C(=O)c1ccc(N)cc1)C2 [Compound O-0015, (4-aminophenyl)(5-(methyl(4-(trifluoromethyl)phenyl)amino)-3,4-dihydroisoquinolin-2(1H)-yl)methanone] | 0.001 to 10 µM |
| O=C(NC1CC1)N1CCC(C(=O)N2CCc3c(cccc3Nc3ccc(C(F)(F)F)cc3F)C2)C1 (centres unmarked) [Compound O-0094, N-cyclopropyl-3-(5-((2-fluoro-4-(trifluoromethyl)phenyl)amino)-1,2,3,4-tetrahydroisoquinoline-2-carbonyl)pyrrolidine-1-carboxamide] | 0.001 to 10 µM |

Reference: patent US20250368614A1, “COMPOUNDS AND METHODS FOR YAP/TEAD MODULATION AND INDICATIONS THEREFOR” (OPNA BIO SA, priority 2023, published 2025)
